Test in all cases: ≥ marks a high value that may be exact or a test limit, other limits are often not marked, values filed in µg/mL are converted to µM
Assay [1] concerns Salmonella enterica subsp. enterica serovar Typhimurium ATCC 14028.
Assay [2] deals with Staphylococcus aureus ATCC 25923.
For assay [3], the system named is Escherichia coli K99.
In assay [4] the test system is Staphylococcus epidermidis ATCC 12228.
Assay [5] deals with Pseudomonas aeruginosa ATCC 27853.
In assay [6] the test system is Staphylococcus aureus ATCC 43300.
Assay [7] deals with Escherichia coli 078.
Assay [8] concerns Escherichia coli UB1005.
For assay [9], the system named is Candida parapsilosis CGMCC 2.3989.
Assay [10] has as its system Escherichia coli K88.
The test system of assay [11] is Salmonella enterica subsp. enterica serovar Typhimurium C77-31.
Assay [12] has as its system Candida tropicalis CGMCC 2.1975.
Assay [13] has as its system Salmonella enterica subsp. enterica serovar Pullorum ATCC 7913.
The subject of assay [14] is Legionella pneumophila Lens.
In assay [15] the test system is Acinetobacter baumannii CR17.
Assay [16] deals with Enterobacter cloacae ATCC 23355.
Assay [17] relates to Escherichia coli ATCC 25922.
Assay [18] concerns Staphylococcus aureus ATCC 6538.
The test system of assay [19] is Bacillus subtilis CCT 2471.
The test system of assay [20] is Pseudomonas aeruginosa ATCC 15442.
In assay [21] the test system is Staphylococcus epidermidis.
Assay [22] relates to Staphylococcus saprophyticus.
In assay [23] the test system is Escherichia coli CCT 1371.
The test system of assay [24] is Klebsiella pneumoniae ATCC 43816.
Assay [25] concerns Enterococcus faecalis NCTC 12697.
Assay [26] relates to Staphylococcus aureus NCTC 10788.
In assay [27] the test system is Candida albicans NCYC 1467.
The test system of assay [28] is Staphylococcus aureus NCTC 12493.
Assay [29] relates to Escherichia coli NCTC 10418.
Assay [30] relates to Staphylococcus aureus ATCC 29213.
In assay [31] the test system is Pseudomonas aeruginosa PAO1.
In assay [32] the test system is Streptococcus agalactiae BNCC 185941.
Assay [33] relates to Salmonella enterica subsp. enterica serovar Choleraesuis CVCC 503.
Assay [34] concerns Lacticaseibacillus rhamnosus 1.9021.
In assay [35] the test system is Escherichia coli O157:H7 CICC 21530.
Assay [36] relates to Lacticaseibacillus rhamnosus 8014.
Assay [37] relates to Salmonella enterica subsp. enterica serovar Pullorum C79-13.
Assay [38] relates to Lacticaseibacillus rhamnosus 1.0911.
Assay [39] has as its system Lacticaseibacillus rhamnosus 1.0936.

Each structure is given as a SMILES string. In brackets after ≈: the same amount, converted by molar mass. Several values for one entry are separate records, joined by “and”; a condition that tells them apart may be missing. Identical values can stand only once.

In the case of `CC[C@H](C)[C@H](NC(=O)[C@H](Cc1c[nH]c2ccccc12)NC(=O)[C@H](CCCN=C(N)N)NC(=O)[C@H](CC(C)C)NC(=O)[C@@H](NC(=O)[C@H](CCCN=C(N)N)NC(=O)[C@H](CCCN=C(N)N)NC(=O)[C@H](C)NC(=O)[C@H](C)N)[C@@H](C)CC)C(=O)N[C@@H](Cc1ccccc1)C(=O)N[C@@H](CCCN=C(N)N)C(N)=O` [AARRILRWIFR], the minimum inhibitory concentration (MIC) stood at 4 µM (≈ 5.83 µg/mL) in [1]; 8 µM (≈ 11.7 µg/mL) in [2]; 4 µM (≈ 5.83 µg/mL) in assay [3]; 4 µM (≈ 5.83 µg/mL) in assay [4]; 8 µM (≈ 11.7 µg/mL) in assay [5]; 8 µM (≈ 11.7 µg/mL) in assay [6]. In addition, the minimum inhibitory concentration (MIC) was found to be 4 µM (≈ 5.83 µg/mL) in assay [7]; 4 µM (≈ 5.83 µg/mL) in [8]; 8 µM (≈ 11.7 µg/mL) in assay [9]; 4 µM (≈ 5.83 µg/mL) in assay [10]; 4 µM (≈ 5.83 µg/mL) in [11]; 4 µM (≈ 5.83 µg/mL) in assay [12]. In [13], this molecule yielded an MIC of 4 µM (≈ 5.83 µg/mL).
As to `CC[C@H](C)[C@H](NC(=O)[C@H](Cc1ccccc1)NC(=O)[C@H](CC(=O)O)NC(=O)[C@H](C)NC(=O)[C@@H](N)CCSC)C(=O)N[C@@H](C)C(=O)N[C@@H](CCCCN)C(=O)N[C@H](C(=O)N[C@H](C(=O)N[C@@H](CCC(=O)O)C(=O)N[C@H](C(=O)N[C@H](C(=O)N[C@@H](CCCCN)C(=O)NCC(=O)N[C@@H](CC(C)C)C(=O)N[C@H](C(=O)N[C@@H](CC(=O)O)C(=O)N[C@@H](CCC(N)=O)C(=O)N[C@@H](Cc1ccccc1)C(=O)N[C@H](C(=O)N[C@@H](CCC(N)=O)C(=O)N[C@@H](CCCCN)C(=O)O)[C@@H](C)O)[C@@H](C)CC)C(C)C)[C@@H](C)CC)C(C)C)[C@@H](C)CC` [MADFIAKIVEIVKGLIDQFTQK], the MIC in assay [14] was 1.25 µM (≈ 3.14 µg/mL).
As to `CC[C@H](C)[C@H](NC(=O)[C@H](CC(N)=O)NC(=O)[C@H](CC(C)C)NC(=O)[C@H](CCCCN)NC(=O)[C@H](C)NC(=O)[C@H](CC(C)C)NC(=O)[C@H](C)NC(=O)[C@H](C)NC(=O)[C@H](CC(C)C)NC(=O)[C@H](C)NC(=O)[C@H](CCCCN)NC(=O)[C@H](CCCCN)NC(=O)[C@@H](NC(=O)[C@@H](N)CC(C)C)[C@@H](C)CC)C(N)=O` [LIKKALAALAKLNI], the MIC in assay [15] is no less than 173 µM.
For `CC[C@H](C)[C@H](NC(=O)[C@H](C)NC(=O)CNC(=O)[C@H](CC(C)C)NC(=O)[C@@H](NC(=O)[C@H](CCCCN)NC(=O)[C@H](CCCCN)NC(=O)[C@@H](NC(=O)[C@@H](NC(=O)CNC(=O)[C@H](CC(C)C)NC(=O)[C@H](CC(C)C)NC(=O)[C@H](CCCCN)NC(=O)[C@@H](N)CC(C)C)[C@@H](C)CC)C(C)C)C(C)C)C(N)=O` [LKLLGIVKKVLGAI], the MIC in [2] is 3 µM (≈ 4.39 µg/mL); in assay [16], no less than 34 µM; in assay [17], 3 µM (≈ 4.39 µg/mL); in [18], 17 µM (≈ 24.9 µg/mL); in assay [19], no less than 68 µM; in assay [20] it was no less than 34 µM. Moreover, the figures for the MIC in assay [21], in assay [22] and in assay [23] were no less than 34 µM, 3 µM (≈ 4.39 µg/mL) and no less than 34 µM, respectively.
On to `CC[C@H](C)[C@H](NC(=O)[C@H](C)NC(=O)[C@H](CCCCN)NC(=O)[C@@H]1CCCN1C(=O)[C@@H](NC(=O)[C@H](CC(C)C)NC(=O)[C@H](CO)NC(=O)[C@H](CC(C)C)NC(=O)[C@@H](N)Cc1ccccc1)[C@@H](C)CC)C(=O)N[C@@H](CO)C(=O)N[C@@H](C)C(=O)N[C@H](C(=O)N[C@@H](CO)C(=O)N[C@@H](C)C(=O)N[C@@H](CC(C)C)C(=O)N[C@@H](C)C(=O)N[C@@H](CC(N)=O)C(=O)N[C@@H](Cc1cnc[nH]1)C(=O)N[C@@H](Cc1ccccc1)C(N)=O)C(C)C` [FLSLIPKAISAVSALANHF], for which the MIC in assay [24] is no less than 256 µM; in assay [25] it was no less than 32 µM; in [5], greater than 512 µM; in assay [26], 8 µM (≈ 16 µg/mL); in [27], 16 µM (≈ 32 µg/mL); in assay [28], 16 µM (≈ 32 µg/mL). The same molecule returned a minimal inhibitory concentration (MIC) in assay [29] of no less than 128 µM.
Regarding `CC[C@H](C)[C@H](NC(=O)CNC(=O)[C@@H](NC(=O)[C@H](Cc1c[nH]c2ccccc12)NC(=O)[C@@H](NC(=O)CNC(=O)[C@@H](NC(=O)[C@H](CCCCN)NC(=O)[C@@H](N)CCCCN)[C@@H](C)CC)[C@@H](C)CC)[C@@H](C)CC)C(=O)N[C@@H](CCCCN)C(=O)N[C@@H](CCCCN)C(N)=O` [KKIGIWIGIKK], the minimum inhibitory concentration (MIC) in assay [30] was 16 µM (≈ 20.5 µg/mL); in assay [31] it was 16 µM (≈ 20.5 µg/mL); in [1] it was 16 µM (≈ 20.5 µg/mL); in [32] it was no less than 128 µM; in assay [4], 64 µM (≈ 82.1 µg/mL); in [33], 8 µM (≈ 10.3 µg/mL). The MIC in assay [34] was no less than 32 µM; in [35], 4 µM (≈ 5.13 µg/mL); in assay [36], 16 µM (≈ 20.5 µg/mL); in assay [5], 4 µM (≈ 5.13 µg/mL); in [6], 16 µM (≈ 20.5 µg/mL); in [17] it was 8 µM and 16 µM. Besides, the MIC in assay [37] is 8 µM (≈ 10.3 µg/mL); in [38] it was 16 µM (≈ 20.5 µg/mL); in assay [10], 2 µM (≈ 2.57 µg/mL); in assay [39], no less than 64 µM.

The MIC is the least concentration at which growth counts as inhibited.

(Values after DBAASP.)
